Active and inactive are the calls of the source. The calls are words filed in the database; no cut-off is given here.
Tests used:
[1] = test system: HEK-293T; experiment: Effect on gaussia luciferase expression in HEK293T cells at 1 to 10 uM; type: functional, cell-based; conditions: Homo sapiens, dose 1-10 µM
[2] = test system: Zika virus; experiment: Antiviral activity against ZIKV ZG-01 infected in SNB-19 cells assessed as reduction in viral envelope protein level at 10 uM after 18 to 48 hrs by Western blot assay; type: functional, organism-based; conditions: time 18-48 hrs
[3] = test system: Zika virus; experiment: Antiviral activity against ZIKV ZG-01 infected in human SNB-19 cells assessed as reduction in IL-1beta expression at 1 to 5 uM by RT-PCR analysis; type: functional, organism-based; conditions: dose 1-5 µM
[4] = test system: Zika virus; experiment: Antiviral activity against ZIKV ZG-01 infected in human JEG-3 cells assessed as reduction in IL-1beta release at 1 to 5 uM by ELISA; type: functional, organism-based; conditions: dose 1-5 µM
[5] = Cytotoxicity against human JEG-3 cells assessed as reduction in cell viability incubated for 48 hrs by MTT assay; type: toxicity, cell-based
[6] = test system: Zika virus; experiment: Antiviral activity against ZIKV ZG-01 infected in human JEG-3 cells assessed as reduction in TNFalpha release at 1 to 5 uM by ELISA; type: functional, organism-based; conditions: dose 1-5 µM
[7] = test system: Zika virus; experiment: Antiviral activity against ZIKV ZG-01 infected in human SNB-19 cells assessed as reduction in IL-1beta release at 1 to 5 uM by ELISA; type: functional, organism-based; conditions: dose 1-5 µM
[8] = test system: JEG-3; experiment: Antiinflammatory activity in human JEG-3 cells assessed as reduction in IL-6 expression by RT-PCR analysis; type: functional, cell-based
[9] = test system: Zika virus; experiment: Antiviral activity against ZIKV ZG-01 infected in human JEG-3 cells assessed as reduction in TNFalpha expression at 1 to 5 uM by RT-PCR analysis; type: functional, organism-based; conditions: dose 1-5 µM
[10] = test system: Zika virus; experiment: Antiviral activity against ZIKV ZG-01 infected in human JEG-3 cells assessed as reduction in GSDME cleavage by Western blot analysis; type: functional, organism-based; conditions: dose 1-20 µM
[11] = test system: Zika virus; experiment: Antiviral activity against ZIKV ZG-01 infected in Ifnar1 knockout C57BL/6 mouse assessed as reduction in neuronal necrosis by measuring necrotic debris at 20 mg/kg, iv administered daily for 7 days and measured upto 12 dpi by H and E staining based analysis; type: functional, organism-based; conditions: time <= 12.0 day
[12] = test system: Zika virus; experiment: Antiviral activity against ZIKV ZG-01 infected in A549 cells assessed as reduction in viral replication at 20 uM preincubated for 1 hr followed by replacement with fresh media containing compound for 48 hrs by RT-PCR analysis; type: functional; set-up: scale not given: the % may be the effect or the level left; conditions: time 49 hrs
[13] = test system: Zika virus; experiment: Antiviral activity against ZIKV ZG-01 infected in Ifnar1 knockout C57BL/6 mouse assessed as reduction in astrocytes activation by measuring GFAP expression at 20 mg/kg, iv administered daily for 7 days by immunohistochemistry analysis; type: functional, organism-based; conditions: time 7.0 day
[14] = test system: Zika virus; experiment: Antiviral activity against ZIKV ZG-01 infected in JEG-3 cells assessed as reduction in viral envelope protein level at 1 to 20 uM after 48 hrs by Western blot assay; type: functional, organism-based; conditions: dose 1-20 µM
[15] = test system: JEG-3; experiment: Antiinflammatory activity in human JEG-3 cells assessed as reduction in IFNgamma expression by RT-PCR analysis; type: functional, cell-based
[16] = test system: Zika virus; experiment: Antiviral activity against ZIKV ZG-01 infected in JEG-3 cells assessed as reduction in viral replication at 20 uM preincubated for 1 hr followed by replacement with fresh media containing compound for 48 hrs by RT-PCR analysis; type: functional; set-up: scale not given: the % may be the effect or the level left; conditions: time 49 hrs
[17] = test system: Zika virus; experiment: Antiviral activity against ZIKV ZG-01 infected in human JEG-3 cells assessed as reduction in IFNgamma expression at 1 to 5 uM by RT-PCR analysis; type: functional, organism-based; conditions: dose 1-5 µM
[18] = test system: Zika virus; experiment: Antiviral activity against ZIKV ZG-01 infected in Ifnar1 knockout C57BL/6 mouse assessed as reduction in brain viral RNA at 20 mg/kg, iv administered daily for 7 days and measured upto 12 dpi by RT-qPCR analysis; type: functional, organism-based; conditions: time <= 12.0 day
[19] = test system: Zika virus; experiment: Antiviral activity against ZIKV ZG-01 infected in human SNB-19 cells assessed as reduction in TNFalpha release at 1 to 5 uM by ELISA; type: functional, organism-based; conditions: dose 1-5 µM
[20] = test system: Zika virus; experiment: Antiviral activity against ZIKV ZG-01 infected in JEG-3 cells assessed as reduction in viral envelope protein level at 10 uM after 18 to 48 hrs by Western blot assay; type: functional, organism-based; conditions: time 18-48 hrs
[21] = test system: Zika virus; experiment: Antiviral activity against ZIKV ZG-01 infected in human SNB-19 cells assessed as reduction in TNFalpha expression at 1 to 5 uM by RT-PCR analysis; type: functional, organism-based; conditions: dose 1-5 µM
[22] = test system: Zika virus; experiment: Antiviral activity against ZIKV ZG-01 infected in A549 cells preincubated for 1 hr followed by replacement with fresh media containing compound for 48 hrs by crystal violet staining based plaque assay; type: functional, organism-based; conditions: time 49.0 hrs
[23] = test system: Zika virus; experiment: Antiviral activity against ZIKV ZG-01 infected in human JEG-3 cells assessed as reduction in IL-6 expression at 1 to 5 uM by RT-PCR analysis; type: functional, organism-based; conditions: dose 1-5 µM
[24] = test system: HEK293T; experiment: Inhibition of ZIKV RNA polymerase NS5 expressed in HEK293T cells co-transfected with Gluc-reporter gene at 20 uM incubated for 24 hrs by Dual-glo luminescence assay; type: cell-based; conditions: Zika virus
[25] = test system: Zika virus; experiment: Antiviral activity against ZIKV ZG-01 infected in Ifnar1 knockout C57BL/6 mouse assessed as reduction in microglia activation by measuring Iba-1 expression at 20 mg/kg, iv administered daily for 7 days by immunohistochemistry analysis; type: functional, organism-based; conditions: time 7.0 day
[26] = test system: SNB-19; experiment: Antiinflammatory activity in human SNB-19 cells assessed as reduction in TNFalpha expression by RT-PCR analysis; type: functional, cell-based
[27] = test system: JEG-3; experiment: Antiinflammatory activity in human JEG-3 cells assessed as reduction in TNFalpha expression by RT-PCR analysis; type: functional, cell-based

C[C@]1(O)CC2=C(C[C@@]1(C)O)C(=O)c1c(O)cc(N3CCC(c4ccccc4)CC3)c(O)c1C2=O
Activity [1]: inactive | Activity [2]: Active | Activity [3]: Active | Activity [4]: Active | CC50 at 48 h [5]: 54.7 µM | Activity [6]: Active | Activity [7]: Active | Activity [8]: inactive | Activity [9]: Active | Activity [10]: Dose-Dependent Effect | Activity [11]: Active | Activity [12]: 100% | Activity [13]: Active | Activity [14]: Active | Activity [15]: inactive | Activity [16]: 100% | Activity [17]: Active | Activity [18]: Active | Activity [19]: Active | Activity [20]: Active | Activity [21]: Active | Activity [22]: Dose-Dependent Effect | Activity [23]: Active | inhibition [24]: Dose-Dependent Effect | Activity [25]: Active | Activity [26]: inactive | Activity [27]: inactive

From ChEMBL document CHEMBL5620422, “Design, synthesis, and biological evaluation of a series of new anthraquinone derivatives as anti-ZIKV agents” (Eur J Med Chem, 2023)
